Measured values reported in PubChem BioAssay (NCI).
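Values below derive from 48-hour exposures of cells grown in 96-well plates, with endpoints linearly interpolated between the two concentrations bracketing the appropriate inhibition level. The concentration for full growth arrest is given as TGI.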

Assays:
Test in all cases: NCI-60 cell line screen, 48 h
[1] = system: OVCAR-3 ovarian
[2] = system: OVCAR-4 ovarian
[3] = system: M14 melanoma
[4] = system: MDA-MB-435
[5] = system: HCT-116 colon
[6] = system: SK-MEL-5 melanoma
[7] = system: EKVX NSCLC
[8] = system: MDA-MB-231 breast
[9] = system: TK-10 renal
[10] = system: OVCAR-5 ovarian
[11] = system: NCI-H23 lung
[12] = system: MDA-N
[13] = system: HCC-2998 colon
[14] = system: SNB-19 CNS
[15] = system: SK-MEL-28 melanoma
[16] = system: U251 CNS
[17] = system: A498 renal
[18] = system: NCI-H226 lung
[19] = system: T-47D breast
[20] = system: NCI-H522 lung
[21] = system: SK-MEL-2 melanoma
[22] = system: KM12 colon
[23] = system: SF-295 CNS
[24] = system: A549 NSCLC
[25] = system: NCI-H460 lung
[26] = system: CAKI-1 renal
[27] = system: UO-31 renal
[28] = system: RPMI-8226 leukemia
[29] = system: OVCAR-8 ovarian
[30] = system: SF-539 CNS
[31] = system: SN12C renal
[32] = system: BT-549 breast
[33] = system: LOX IMVI melanoma
[34] = system: SW-620 colon
[35] = system: PC-3 prostate
[36] = system: RXF 393 renal
[37] = system: SNB-75 CNS
[38] = system: 786-0 renal
[39] = system: SF-268 CNS
[40] = system: HCT-15 colon
[41] = system: COLO 205 colon
[42] = system: HOP-62 NSCLC
[43] = system: MCF7 breast
[44] = system: ACHN renal
[45] = system: MALME-3M melanoma
[46] = system: UACC-257 melanoma
[47] = system: NCI/ADR-RES ovarian
[48] = system: CCRF-CEM leukemia
[49] = system: SK-OV-3 ovarian
[50] = system: SR leukemia
[51] = system: HL-60(TB) leukemia
[52] = system: IGROV1 ovarian
[53] = system: K-562 leukemia
[54] = system: MOLT-4 leukemia
[55] = system: HS 578T breast
[56] = system: HT29 colon
[57] = system: UACC-62 melanoma
[58] = system: DU-145 prostate

With `CN(C)P(=O)(Oc1occc1C(O)Cc1ccccc1)N(C)C` (stereo not given) the TGI [1] was greater than 100 µM, the TGI [2] was greater than 100 µM and the TGI [3] was greater than 100 µM. The TGI [4] was greater than 100 µM, the TGI [5] was greater than 100 µM and the TGI [6] was greater than 100 µM. It also gave a TGI [7] greater than 100 µM, a TGI [8] greater than 100 µM and a TGI [9] greater than 100 µM. It also gave a TGI [10] greater than 100 µM, a TGI [11] greater than 100 µM and a TGI [12] greater than 100 µM. It also gave a TGI [13] greater than 100 µM, a TGI [14] greater than 100 µM and a TGI [15] greater than 100 µM. For the same molecule, the TGI [16] was greater than 100 µM, the TGI [17] was greater than 100 µM and the TGI [18] was greater than 100 µM. For the same molecule, the TGI [19] was greater than 100 µM, the TGI [20] was greater than 100 µM and the TGI [21] was greater than 100 µM. The TGI [22] was greater than 100 µM, the TGI [23] was greater than 100 µM and the TGI [24] was greater than 100 µM. The TGI [25] was greater than 100 µM, the TGI [26] was greater than 100 µM and the TGI [27] was greater than 100 µM. For the same molecule, the TGI [28] was greater than 100 µM, the TGI [29] was greater than 100 µM and the TGI [30] was greater than 100 µM. It also gave a TGI [31] greater than 100 µM, a TGI [32] greater than 100 µM and a TGI [33] greater than 100 µM. For the same molecule, the TGI [34] was greater than 100 µM, the TGI [35] was greater than 100 µM and the TGI [36] was greater than 100 µM. For the same molecule, the TGI [37] was greater than 100 µM, the TGI [38] was greater than 100 µM and the TGI [39] was greater than 100 µM. For the same molecule, the TGI [40] was greater than 100 µM, the TGI [41] was greater than 100 µM and the TGI [42] was greater than 100 µM. For the same molecule, the TGI [43] was greater than 100 µM, the TGI [44] was greater than 100 µM and the TGI [45] was greater than 100 µM. For the same molecule, the TGI [46] was greater than 100 µM, the TGI [47] was greater than 100 µM and the TGI [48] was greater than 100 µM. The TGI [49] was greater than 100 µM.
`CC(O)CC(O)(C(F)(F)F)C(F)(F)F` (stereo not given) was tested, and the TGI [1] was greater than 10 µM, the TGI [2] was greater than 10 µM and the TGI [3] was greater than 10 µM. For the same molecule, the TGI [4] was greater than 10 µM, the TGI [50] was greater than 10 µM and the TGI [5] was greater than 10 µM. The TGI [51] was greater than 10 µM, the TGI [6] was greater than 10 µM and the TGI [52] was greater than 10 µM. The TGI [7] was greater than 10 µM, the TGI [8] was greater than 10 µM and the TGI [9] was greater than 10 µM. It also gave a TGI [11] greater than 10 µM, a TGI [12] greater than 10 µM and a TGI [13] greater than 10 µM. The TGI [14] was greater than 10 µM, the TGI [15] was greater than 10 µM and the TGI [16] was greater than 10 µM. The TGI [17] was greater than 10 µM, the TGI [18] was greater than 10 µM and the TGI [53] was greater than 10 µM. For the same molecule, the TGI [19] was greater than 10 µM, the TGI [20] was greater than 10 µM and the TGI [21] was greater than 10 µM. For the same molecule, the TGI [22] was greater than 10 µM, the TGI [23] was greater than 10 µM and the TGI [24] was greater than 10 µM. The TGI [25] was greater than 10 µM, the TGI [26] was greater than 10 µM and the TGI [54] was greater than 10 µM. It also gave a TGI [27] greater than 10 µM, a TGI [55] greater than 10 µM and a TGI [28] greater than 10 µM. For the same molecule, the TGI [29] was greater than 10 µM, the TGI [30] was greater than 10 µM and the TGI [56] was greater than 10 µM. The TGI [31] was greater than 10 µM, the TGI [33] was greater than 10 µM and the TGI [34] was greater than 10 µM. It also gave a TGI [35] greater than 10 µM, a TGI [36] greater than 10 µM and a TGI [37] greater than 10 µM. For the same molecule, the TGI [38] was greater than 10 µM, the TGI [39] was greater than 10 µM and the TGI [57] was greater than 10 µM. For the same molecule, the TGI [40] was greater than 10 µM, the TGI [58] was greater than 10 µM and the TGI [41] was greater than 10 µM. For the same molecule, the TGI [42] was greater than 10 µM, the TGI [43] was greater than 10 µM and the TGI [44] was greater than 10 µM. The TGI [45] was greater than 10 µM, the TGI [46] was greater than 10 µM and the TGI [47] was greater than 10 µM. It also gave a TGI [48] greater than 10 µM and a TGI [49] greater than 10 µM.
